# In patent US9334235B2, “Plasmalogen compounds, pharmaceutical compositions containing the same and methods for treating diseases of the aging” (Phenomenome Discoveries Inc., priority 2008, dated 2016):
# Legend:
# sAPPα = experiment: Immunoprecipitation/immunoblot of sAPPα in conditioned medium of HEK293 cells; format: cell-based, human; conditions: 20 μM; cholesterol loaded HEK293 cells
# Method: (§1) HEK293 cells were treated as described in the amyloid assay. The cell pellet was washed in PBS and lysed in a RIPA buffer containing a protease inhibitor cocktail (Sigma, St. Louis, […].). Protein in the cell lysate was quantified using the Bio-Rad Protein Assay (Bio-Rad, Hercules, Calif.). The following antibodies were used for western analyses: APP (Calbiochem, Darmstadt, Germany), BACE1 and ADAM10 (Millipore, Temecula, Calif.), sAPPα (IBL, Gunma, Japan), SOAT1 (Santa Cruz Biotechnology Inc., CA), and β-actin (Sigma, St. Louis, […].). Immunoprecipitation was carried out to estimate sAPPα in the conditioned medium. Briefly, antibody to sAPPα was added to conditioned media and incubated for 16 hours at 4° C. IP was carried out by incubating with protein A/G agarose beads for 6 hours at 4° C. Beads were washed with PBS and the eluted proteins were detected by immunoblotting with anti-sAPPα antibody. Band intensities were quantified using Image Processing and Analysis in Java (ImageJ) software (National Institutes of Health, Bethesda, Md.)
# HEK293 cells [1] = experiment: Cholesterol assay (free/esterified cholesterol) in HEK293 cells; format: cell-based, human; conditions: for membrane cholesterol (membrane free cholesterol levels): 20 μM
# Method: (§2) Chinese hamster ovary (CHO), N-Rel^30 (a mutant CHO cell line deficient in the peroxisomal enzyme dihydroxyacetonephosphate acyltransferase), and human embryonic kidney (HEK293) cells were grown in 10 cm^2 dishes in DMEM/Ham's F12 (1:1) containing 10% FBS. Cells were incubated with plasmalogen precursors dissolved in ethanol (final ethanol concentration of 0.1%) and harvested for plasmalogen analysis by LC-MS-MS^31, and cholesterol and cholesterol ester analyses utilizing a commercial colorimetric kit (BioVision #K613).
# (§3) HEK 293 cells, cultured in DMEM, 10% FBS at 37° C., 5% CO2, were seeded the day before the treatment. The following day, cells membranes were loaded with exogenous cholesterol at a concentration of 10 μg/ml media using methyl-β-cyclodextrin as the carrier to deliver cholesterol as described (Rong et al., 2003).
# Cells were treated with the plasmalogen precursor PPI-1005 or with ethanol as the control. Cells were harvested after 48 hours using Versene: TryPLe express cocktail, washed with PBS. Lipids were extracted with chloroform containing 1% Triton X-100. The organic fraction was recovered and dried under a stream of nitrogen. The dried lipids were resuspended in cholesterol reaction buffer (Biovision, Mountain View, Calif.), and the total, free and esterified fractions of cholesterol were quantified using the cholesterol quantification kit (Biovision, Mountain View, Calif.) as per the manufacturer's recommendations. Cholesterol was initially calculated as μg/million cells, and reported as a percentage of control conditions for each experiment.
# SOAT1 = experiment: Immunoblotting of membrane-resident protein SOAT1 in HEK293 cells; format: cell-based, human
# Method: as §1
# ADAM10 = experiment: Immunoblotting of membrane-resident protein ADAM10 in HEK293 cells; format: cell-based, human
# Method: as §1
# N-Rel cells [2] = experiment: Plasmalogen analysis by LC-MS/MS in N-Rel cells incubated with plasmalogen precursors; format: cell-based, Chinese hamster; conditions: for conversion to PlsEtn species: cells with impaired plasmalogen biosynthesis capacity (N-Rel)
# Method: as §2
# APP = experiment: Immunoblotting of APP in HEK293 cells; format: cell-based, human; conditions: wild-type HEK293 cells, not loaded with cholesterol
# Method: as §1
# HEK293 cells [3] = experiment: Amyloid assay: Aβ secreted into conditioned medium of HEK293 cells (ELISA); format: cell-based, human; conditions: for levels of AB-40 / levels of AB-42: normal cells and cholesterol loaded cells
# Method: as §3
# HEK293 cells were loaded with exogenous cholesterol as described, and treated with a PPI 1005 or with ethanol as a control. Conditioned media from the treated cells was collected at the end of a 48 hour incubation period. For assaying Aβ1-42 content, the conditioned media was enriched using Amicon ultracentrifugal filter devices (Millipore, Billerica, Mass.) prior to loading into the microplate. ELISA was carried out as per the manufacturer's recommendations (Covance Labs, Princeton, N.J.). The reactions were quenched 25 minutes after addition of the substrate, and the absorbance was read at 495 nm. The experiment was carried out in triplicate. Values were calculated as pg/ml of conditioned media, and were normalized to the amount of Aβ detected in the conditioned media from untreated, cholesterol loaded control HEK293 cells.
# N-Rel cells [4] = experiment: Membrane cholesterol and cholesterol ester analysis (colorimetric kit) in N-Rel cells; format: cell-based, Chinese hamster; conditions: for membrane cholesterol esters (esterified cholesterol) / membrane free cholesterol: 20 μM, 48 hr incubation; for membrane cholesterol levels: N-Rel cells
# Method: as §2
# CHO cells = experiment: Plasmalogen analysis by LC-MS/MS in CHO cells incubated with plasmalogen precursors; format: cell-based, Chinese hamster; conditions: for DHA plasmalogens in CHO cells: 72 hr, relative to CHO controls; for conversion to PlsEtn species: cells with unimpaired plasmalogen biosynthesis capacity (CHO)
# Method: as §2
# BACE1 = experiment: Immunoblotting of BACE1 (β-secretase) in HEK293 cells; format: cell-based, human
# Method: as §1
# [5] = Oral dosing of rabbits: plasma plasmalogens, phosphatidylethanolamines and DHA by LC-MS/MS; format: in vivo, New Zealand rabbits
# Method: (§4) Male New Zealand rabbits (1.8-2.5 kg) were orally dosed with PPI-1011, neat in hard gelatin capsules (size 3). For time course studies, rabbits were dosed with 200 mg/kg of PPI-1011 and animals sacrificed via euthenol overdose at 1, 3, 6, 12, 18, 24 and 48 hr. Blood was collected by cardiac puncture and plasma frozen at −70° C. for later analysis. Kidney and liver also were harvested and stored at −70° C. for later analysis. These studies were conducted as 2 experiments with overlapping groups at 12 hrs (Exp. 1: 1, 3, 6, and 12 hrs; Exp. 2: 12, 18, 24 and 48 hrs). Controls were harvested at each timepoint. Plasmalogens and lipids were extracted and analyzed by LC-MS/MS as previously reported (Goodenowe et al., 2007).
# [6] = Oral dosing of rabbits: kidney plasmalogens and DHA; format: in vivo, New Zealand rabbits; conditions: 200 mg/kg orally; 1, 3, 6 and 12 hours
# Method: as §4
# [7] = Oral dosing of rabbits: liver plasmalogens and DHA; format: in vivo, New Zealand rabbits; conditions: 200 mg/kg orally; 12, 18, 24 and 48 hours
# Method: as §4
# [8] = cholesterol loaded HEK293 cells (FIG. 18A)
# [9] = wild-type HEK293 cells, not loaded with cholesterol
structure (smiles),measurement,setting,value
CC/C=C\C/C=C\C/C=C\C/C=C\C/C=C\C/C=C\CCC(=O)OC(CO)COCCCCCCCCCCCCCCCC (stereo not shown) [PPI-1005],increase in sAPPα species in the conditioned medium,sAPPα,73%
same,membrane cholesterol (membrane free cholesterol levels),HEK293 cells [1]; 48 hr incubation,decrease
same,free cholesterol content of the cell membrane,"HEK293 cells [1]; cholesterol loaded HEK293 cells, 48 hours",significantly reduced
same,SOAT1 upregulation compared with the cholesterol loaded condition,SOAT1; [8],approximately 25%
same,concentration-dependent increase in abundance of SOAT1,SOAT1; [9],50%
same,increase in ADAM10,ADAM10; [8],63%
same,concentration-dependent increase in abundance of ADAM10,ADAM10; [9],35%
same,"levels of total DHA plasmalogens in N-Rel cells, relative to control CHO cells",N-Rel cells [2]; 72 hr incubation,restored in a concentration-dependent manner
same,DHA-PlsEtn level,N-Rel cells [2]; N-Rel cells,80 % of control values
same,conversion to PlsEtn species,N-Rel cells [2],effectively converted to PlsEtn species
same,APP abundance,APP,No change
same,basal and cholesterol (25.8 μM)-stimulated Aβ42 secretion,HEK293 cells [3]; 20 μM,decreases
same,"Aβ42 content in the conditioned medium, drop below cholesterol-loaded levels","HEK293 cells [3]; 20 μM, cholesterol loaded HEK293 cells, 48 hour incubation",70%
same,levels of AB-40,HEK293 cells [3],decreased
same,levels of AB-42,HEK293 cells [3],decreased
same,membrane cholesterol esters (esterified cholesterol),N-Rel cells [4],increases
same,membrane free cholesterol,N-Rel cells [4],decreases
same,membrane cholesterol levels,N-Rel cells [4],significant reduction
same,DHA plasmalogens in CHO cells,CHO cells,concentration-dependent (72 hr) increase
same,conversion to PlsEtn species,CHO cells,effectively converted to PlsEtn species
same,β-secretase abundance,"BACE1; 20 μM, cholesterol loaded HEK293 cells",restored to normal levels
same,BACE I abundance,BACE1; [9],No change
"CC/C=C\C/C=C\C/C=C\C/C=C\C/C=C\C/C=C\CCC(=O)OC(COCCCCCCCCCCCCCCCC)COC(=O)CC(C[N+](C)(C)C)OC(C)=O (stereo not shown) [PPI-1009, 2-acetoxy-4-(2-((4Z,7Z,10Z,13Z,16Z,19Z)-docosa-4,7,10,13,16,19-hexaenoyloxy)-3-(hexadecyloxy)propoxy)-N,N,N-trimethyl-4-oxobutan-1-aminium]","membrane cholesterol levels, concentration response",HEK293 cells [1]; 48 hr incubation,concentration-dependently decrease
same,time course of incorporation into plasmalogens,"N-Rel cells [2]; 10 μM, 0, 6, 12, 24, 48 and 72 hr",incorporation into plasmalogens
same,cellular levels of chimyl alcohol or the associated alkenyl-acyl-glycerol,"N-Rel cells [2]; 10 μM, 0-72 hr, chimyl alcohol by GC-MS",lack of effect
same,conversion to PlsEtn species,N-Rel cells [2],effectively converted to PlsEtn species
same,basal and cholesterol (25.8 μM)-stimulated Aβ42 secretion,HEK293 cells [3]; 10 μM,acted in a similar manner
same,levels of AB-40,HEK293 cells [3],decreased
same,levels of AB-42,HEK293 cells [3],decreased
same,membrane cholesterol esters (esterified cholesterol),N-Rel cells [4],augmentation
same,membrane free cholesterol,N-Rel cells [4],most robust decreases
same,membrane cholesterol levels,N-Rel cells [4],concentration-dependently decrease
same,DHA plasmalogens in CHO cells,CHO cells,concentration-dependent (72 hr) increase
same,conversion to PlsEtn species,CHO cells,effectively converted to PlsEtn species
"CCCCCCCCCCCCCCCCOCC(O)CO (stereo not shown) [chimyl alcohol, reference compound]",DHA-plasmalogens in N-Rel cells,N-Rel cells [2]; expressed relative to N-Rel controls,increased
same,DHA plasmalogens in CHO cells,CHO cells,no effect
CCC=CCC=CCC=CCC=CCC=CCC=CCCC(=O)OC(CO)COCCCCCCCCCCCCCCCCCC (stereo not shown) [18:0/DHA glycerol],membrane cholesterol (membrane free cholesterol levels),HEK293 cells [1]; 48 hr incubation,decrease
"CC/C=C\C/C=C\C/C=C\C/C=C\C/C=C\C/C=C\CCC(=O)OC(COCCCCCCCCCCCCCCCC)COC(=O)C(CS)NC(C)=O (stereo not shown) [PPI-1014, (4Z,7Z,10Z,13Z,16Z,19Z)-1-(2-acetamido-3-mercaptopropanoyloxy)-3-(hexadecyloxy)propan-2-yl docosa-4,7,10,13,16,19-hexaenoate]",incorporation in N-Rel ethanolamine plasmalogens (PlsEtn) and phosphatidylethanolamines (PtdEtn),"N-Rel cells [2]; 72 hours, 5, 10 and 20 μM",structure-specific and concentration-dependent incorporation
"CC/C=C\C/C=C\C/C=C\C/C=C\C/C=C\C/C=C\CCC(=O)OC(COCCCCCCCCCCCCCCCC)COC(=O)CCCC[C@@H]1CCSS1 (stereo partly drawn) [PPI-1011, (4Z,7Z,10Z,13Z,16Z,19Z)-1-(5-((R)-1,2-dithiolan-3-yl)pentanoyloxy)-3-(hexadecyloxy)propan-2-yl docosa-4,7,10,13,16,19-hexaenoate]",new steady-state level of plasma plasmalogens and phosphatidylethanolamines versus dose,"[5]; 6 hours after oral doses of 10, 75, 200 mg/kg",dose-dependent manner from 10 to 200 mg/kg
same,steady-state levels of circulating DHA,[5]; dose of 1000 mg/kg versus 500 mg/kg,did not further increase
same,steady-state levels of plasmalogens and phosphatidylethanolamines above that obtained with 200 mg/kg,"[5]; further increases in dose (500, 1000 mg/kg), 6 hours",did not increase
same,"deacylation at sn-2, releasing docosahexaenoic acid (DHA)",[5]; oral dose of 200 mg/kg,observed
same,reference phosphatidylethanolamine 16:0/18:0 in plasma,[5]; oral dose of 200 mg/kg,No change
same,incorporation into circulating plasmalogens,"[5]; oral dose of 200 mg/kg, rabbit plasma",incorporated into circulating plasmalogens
same,oral bioavailability,[5]; rabbit,orally bioavailable
same,tissue plasmalogens and DHA in rabbit kidney,[6],augmentation
same,tissue plasmalogens and DHA in rabbit liver,[7],augmentation
"CCC=CCC=CCC=CCC=CCC=CCC=CCCC(=O)OC(CO)COC(=O)CCCCCCCCCCCCCCC (stereo not shown) [16:0*:DHA glycerol, reference compound]",membrane cholesterol (membrane free cholesterol levels),HEK293 cells [1]; 48 hr incubation,inactive
same,membrane free cholesterol,N-Rel cells [4],inactive
